In PubChem BioAssay (NCI):
“And” between values parts separate entries of the source, which are not always exact repeats. Equal values may be shown once.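 1) Cells in 96-well plates. 2) Compound, 48 h, 5 concentrations. 3) Linear interpolation between surrounding doses. 4) Unreached endpoint = highest concentration. The concentration for 50% growth inhibition is given as GI50. At the TGI there is no net growth.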

System: MDA-MB-468 breast
Test: NCI-60 cell line screen, 48 h

Structure (SMILES)	GI50	TGI
COc1ccc2c(c1)C(=O)/C(=C/c1ccc(O)cc1)O2	2400 nM	12400 nM
O=C1NN(C(=O)c2ccccc2)C(c2ccc(Cl)c(Cl)c2)=C/C1=C\c1ccccc1[N+](=O)[O-]	6140 nM	> 6750 nM
Nc1ccccc1NC(=O)c1ccc(NC(=O)C/C=C/c2cccnc2)cc1	915 nM	2660 nM
CCCCCCCCCCCCCCCCCC1=NC(C)(C)CN1C(C)(C)CO	1210 nM	2560 nM
COc1cc2nc(Cl)nc(Nc3cccc(C4=Nc5c(N)nc(N)nc5NC(c5ccc(F)cc5)C4)c3)c2cc1OC (stereo not drawn)	1790 nM	3390 nM
FC(F)(F)c1cccc(Oc2ccc(Nc3ncnc4ccc(OCCCN5CCOCC5)cc34)cc2Cl)c1	480 nM	2850 nM
CO[C@H]1/C=C/O[C@@]2(C)Oc3c(C)c(O)c4c(O)c(c(/C=N/N5C(C)CN(Cc6ccc(C#N)cc6)CC5C)c(O)c4c3C2=O)NC(=O)/C(C)=C\C=C\[C@H](C)[C@H](O)[C@@H](C)[C@@H](O)[C@@H](C)[C@H](OC(C)=O)[C@@H]1C (stereo partly drawn)	11000 nM	39900 nM
Oc1c(CN2CCCCC2)ccc2cccnc12	4890 nM	22400 nM
Cn1cc(-c2ncnc3ccc(-c4cnc(Cl)c(NS(C)(=O)=O)c4)cc23)c2ccccc21	183 nM	2350 nM
COc1nc2c(c(=O)n1C)CN(c1ccccc1)C(=O)CN2C	13300 nM	80900 nM
CC1(C)N=C(N)N=C(N)N1c1cccc(CCCCc2ccc(Cl)c(S(=O)(=O)F)c2)c1	10600 nM	24500 nM
N[C@@H](Cc1c[nH]c2ccccc12)C(=O)NC1CCN(Cc2c[nH]c3ccc(Cl)cc23)CC1	2430 nM	5740 nM
CCCCNC(=O)Oc1ccc(/C(=C(\C)c2ccc(OC)cc2)c2ccc(OCCN3CCCCC3)cc2)cc1	2080 nM	5070 nM
O=C(Nc1ccc(Cl)cc1)c1cc(NCc2cc(O)ccc2O)ccc1O	4810 nM	26600 nM
Cc1cccc2c(=O)c3c(sc12)c(NCCCN)nc1ccccc13	1430 nM	2940 nM
COc1cc(OCCCN2CCCC2)ccc1Nc1ncc(Cl)c(Nc2ccccc2P(C)(C)=O)n1	1220 nM	3640 nM
CC1(C)CC[C@]2(C(=O)NCCNCCN)CC[C@]3(C)C(=CC[C@@H]4[C@@]5(C)CCC(=O)C(C)(C)[C@@H]5CC[C@]43C)[C@@H]2C1	1710 nM	3290 nM
COC1=CC(c2ccc[nH]2)=N/C1=C\c1[nH]c(C)c(CC(=O)NCc2ccccc2)c1C	1170 nM	2630 nM
NC(CCl)=NCC12CC3CC(CC(C3)C1)C2	827 nM	6950 nM
COC(=O)[C@@H](C)C[C@H](Cc1ccccc1)NC(=O)c1csc([C@@H](C[C@H](C(C)C)N(C)C(=O)[C@@H](NC(=O)[C@H]2CCCCN2C)c2ccc(F)cc2)OC(C)=O)n1	4.17 nM and 2.5 nM and 16.3 nM	25000 nM and > 100000 nM

Structure (SMILES)	GI50	TGI
C#Cc1cccc(Nc2nc(C)nc3cc(NC(=O)CCl)ccc23)c1	770 nM	2180 nM
CCOc1ccc(Nc2ccnc3cc(Cl)ccc23)cc1	43100 nM	> 100000 nM
C=C[C@@H]1CCC/C=C/[C@@H]2C[C@H](O)C[C@H]2[C@H](O)/C=C/C(=O)O1	216 nM	611 nM
COc1ccc(-c2c(NC(=O)Nc3ccc(Cl)c(C(F)(F)F)c3)cnn2-c2ccc(S(N)(=O)=O)cc2)cc1	2050 nM	6880 nM
Cc1cc(C)c([I+]c2c(C)cc(C)cc2C)c(C)c1	134 nM	672 nM
COc1cc(-c2n/c(=C\c3c(O)[nH]c4ccccc34)cc3c2=Nc2ccccc2-3)ccc1F	2610 nM	16700 nM
O=C(N/N=C/c1ccc([N+](=O)[O-])cc1)c1ccccc1Nc1ccnc(C(F)(F)F)c1	15800 nM	41300 nM
O=c1cc(-c2ccccc2)oc2c(O)c(O)ccc12	14300 nM	79200 nM
O=c1oc2ccc(F)cc2c(=O)n1-c1ccc(I)cc1F	375 nM	2450 nM
COC(=O)[C@@H](C)C[C@H](Cc1ccc(F)cc1)NC(=O)c1csc([C@@H](C[C@H](C(C)C)N(C)C(=O)[C@@H](NC(=O)[C@H]2CCCCN2C)C2CC2)OC(C)=O)n1	138 nM	> 25000 nM
COc1ccc(-c2oc3ncnc(N)c3c2-c2ccc(NC(=O)Nc3cc(C(F)(F)F)ccc3F)cc2)cc1	903 nM	2310 nM
C[C@]1(c2nc3c(C(N)=O)cccc3[nH]2)CCCN1	29700 nM	> 100000 nM
N#Cc1c(N)c(C(=O)c2ccc3c(c2)OCCO3)n2c1CCCC2	2470 nM	23700 nM
NC(=O)c1ccc(I)c([N+](=O)[O-])c1	24400 nM	> 65600 nM
COc1ccc2cc(C(=O)N3CCC([C@@H](C)C(=O)NCc4ccc5c(c4)OCO5)CC3)[nH]c2c1	86200 nM	> 100000 nM
N#Cc1nc(-c2ccccc2)oc1S(=O)(=O)N1CCN(CCc2ccccn2)CC1	1600 nM	3450 nM
CC[C@H](C)[C@H](NC(=O)c1ncccn1)C(=O)N(C)[C@H](C[C@@H](OC(C)=O)c1nc(C(=O)N[C@@H](Cc2ccccc2)C[C@H](C)C(=O)OC)cs1)C(C)C	757 nM	> 25000 nM
O=C(N/N=C\c1ccc(N(CCCl)CCCl)cc1)c1cccnc1	11000 nM	59600 nM
CCCCCCCC(=O)Nc1nc2[nH]c(CN3CCN(Cc4cccc(I)c4)CC3)c(CN3CCN(Cc4cccc(I)c4)CC3)c2c(=O)[nH]1	858 nM	1640 nM
